In article PMC9917443 (eLife, 2023):
Entries after “also recorded” stand apart in the source; their conditions may differ.

Legend:
[1] = test system: GB1a/2 receptor-induced Kir3 currents in HEK293T cells; test: Kir3 K^+ currents in transfected HEK293T cells (patch-clamp); type: cell-based
[2] = test system: mEPSCs in brain slices / cultured hippocampal neurons; details: cultured hippocampal neurons APP17 250 nM, ref Rice et al., 2019; cited from earlier work
From the text: GBRs are composed of a GB1a or GB1b subunit with a GB2 subunit, which generates heterodimeric GB1a/2 and GB1b/2 receptors ([Pin and Bettler, 2016]). GB1a differs from GB1b by the presence of two N-terminal sushi domains (SD1/2). GB1a/2 and GB1b/2 receptors predominantly localize to pre- and postsynaptic sites, respectively ([Vigot et al., 2006]). APP and sAPP bind to SD1 of GB1a ([Schwenk et al., 2016]; [Dinamarca et al., 2019]; [Rice et al., 2019]). Synthetic APP peptides of 9 or 17 amino acid residues, termed APP9 and APP17, are sufficient for binding and inducing a stable conformation in SD ... || GB1a/2 receptors are abundant at axon terminals where they inhibit neurotransmitter release ([Vigot et al., 2006]). […] A GBR antagonist blocked the effect of APP17 on the mEPSC frequency, supporting a GBR-dependent mechanism.

[3] = test system: GBR-activated K^+ currents in cultured hippocampal neurons; test: K^+ currents in cultured hippocampal neurons (patch-clamp); type: cell-based, mouse
Description: APP17 signaling through native GBRs may depend on protein-protein interactions that are not preserved in the membrane preparations used for the [^35S]GTPγS binding assay. Therefore, we tested whether APP17 influences GBR-mediated Gβγ signaling to K^+ channels in cultured hippocampal neurons using patch-clamp electrophysiology, which preserves the native environment of receptors ([Schuler et al., 2001]; [Vigot et al., 2006]). […] . Neuronal cultures and HEK293T cells were prepared as described ([Dinamarca et al., 2019]). Coverslips with hippocampal neurons (DIV 12–15) or HEK293T cells were transferred to a chamber containing a low-K^+ bath solution (in mM): 145 NaCl, 4 KCl, 5 HEPES, 5.5 D-glucose, 1 MgCl2, and 1.8 CaCl2 (pH 7.4 adjusted with NaOH). Recordings were performed at room temperature using borosilicate pipettes of 3–5 MΩ resistance tips, filled with K-gluconate-based pipette solution (in mM): 150 K-gluconate, 1.1 EGTA, 10 HEPES, 10 Tris-phosphocreatine, 0.3 NaGTP, and 4 MgATP (pH 7.2 adjusted with KOH). Upon achieving whole-cell access, cells were held in voltage-clamp mode at −70 mV (with no correction for liquid junction potential) and baclofen-induced K^+ currents were induced in a high-K^+ bath solution (in mM): 120 NaCl, 25 KCl, 5 HEPES, 5.5 D-glucose, 1 MgCl2, and 1.8 CaCl2 (pH 7.4 adjusted with NaOH). […] Schaffer collaterals were stimulated at 0.1 Hz with brief current pulses via bipolar Pt/Ir wires. Evoked EPSCs were recorded at –60 mV with a Cs^+-based intracellular solution. Baclofen and peptides were bath applied in standard ACSF at room temperature. We recorded mEPSCs in primary neuronal cultures established from embryonic (E15–17) murine hippocampus at DIV13–16 in the presence of 0.5 μM TTX at room temperature ([Dinamarca et al., 2019]). APP17 (250 nM) and (R)-baclofen (30 μM) were applied via superfusion. Template matching with pClamp 10 software (Molecular Devices) was used to detect individual mEPSCs.

For Ac-DDSDVWWGGADTDYADG-NH2 [APP17], the “GABA-induced Kir3 currents in presence of peptide (in words)” value ([1]; 5 µM GABA) is listed as “nor did the peptides alter K^+ currents in the presence of 5 µM GABA”, the “Kir3 K^+ currents evoked by compound alone (in words)” value ([1]; transfected HEK293T cells) is listed as “did not trigger K^+ currents” and the “mEPSC frequency (in words)” value [2] is listed as “reduce the frequency of mEPSCs; also recorded: reduced the frequency of miniature excitatory postsynaptic currents (mEPSCs) in brain slices”. The “K+ current” value ([3]; 5 µM APP17, column graph (left), single values) was -1.055, the “baclofen-induced K^+ currents in presence of peptide (in words)” value ([3]; 5 µM peptide + 5 µM baclofen) was “elicited currents of similar amplitudes as baclofen alone” and the “K^+ currents evoked by compound alone (in words)” value ([3]; 5 µM, -70 mV) was “did not elicit any currents”.
